PubChem BioAssay AID330 (DTP/NCI, 2004)
Where “and” joins values, the source holds several entries; their conditions need not be identical. Equal entries are not always repeated. Toxic doses and inconclusive results are not listed. Numbered stars: 1 amine (or outer) side, 2 acyl side, 3 side chain; on linkers, the order of the positions; unused ones are H or OH. Peptide text beside a SMILES is read from it. ξ: configuration not given here. ξγGlu = O=C(O)C(CCC(=O)[*:2])N[*:1]

Tested on: P388 leukemia ip, CD2F1 mice, survival T/C
Experiment: NCI In Vivo Anticancer Drug Screen. Data for tumor model P388 Leukemia (intraperitoneal) in CD2F1 (CDF1) mice
Settings: endpoint: median survival time, higher = longer survival
Summary of the method: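 Mice carrying the transplanted tumor received test compound or vehicle. Survival was recorded in each group, and the value is the treated-group measurement divided by that of the vehicle-treated control group.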

[1] = dose: 50.0 mg/kg/injection, schedule: Q01DX009 (ip), vehicle: Klucel (hydroxypropylcellulose) (HPC)
[2] = dose: 100.0 mg/kg/injection, schedule: Q01DX009 (ip), vehicle: Klucel (hydroxypropylcellulose) (HPC)
[3] = dose: 50.0 mg/kg/injection, schedule: Q01DX009 (ip), vehicle: saline
[4] = dose: 100.0 mg/kg/injection, schedule: Q01DX009 (ip), vehicle: saline
[5] = dose: 200.0 mg/kg/injection, schedule: Q01DX009 (ip), vehicle: saline
[6] = dose: 50.0 mg/kg/injection, schedule: Q04DX003 (ip), vehicle: saline with Tween-80
[7] = dose: 50.0 mg/kg/injection, schedule: Q01DX005 (ip), vehicle: saline with Tween-80
[8] = dose: 50.0 mg/kg/injection, schedule: Q01DX009 (ip), vehicle: saline with Tween-80
[9] = dose: 100.0 mg/kg/injection, schedule: Q01DX009 (ip), vehicle: saline with Tween-80
[10] = dose: 200.0 mg/kg/injection, schedule: Q01DX009 (ip), vehicle: saline with Tween-80
[11] = dose: 50.0 mg/kg/injection, schedule: Q01DX005 (ip), vehicle: saline
[12] = dose: 100.0 mg/kg/injection, schedule: Q01DX005 (ip), vehicle: saline
[13] = dose: 200.0 mg/kg/injection, schedule: Q01DX005 (ip), vehicle: saline
[14] = dose: 50.0 mg/kg/injection, schedule: Q01DX005 (ip), vehicle: Klucel (hydroxypropylcellulose) (HPC)
[15] = dose: 100.0 mg/kg/injection, schedule: Q01DX005 (ip), vehicle: Klucel (hydroxypropylcellulose) (HPC)
[16] = dose: 200.0 mg/kg/injection, schedule: Q01DX005 (ip), vehicle: Klucel (hydroxypropylcellulose) (HPC)
[17] = dose: 60.0 mg/kg/injection, schedule: Q01DX005 (ip), vehicle: saline with Tween-80
[18] = dose: 100.0 mg/kg/injection, schedule: Q01DX005 (ip), vehicle: saline with Tween-80
[19] = dose: 12.5 mg/kg/injection, schedule: Q01DX009 (ip), vehicle: saline with Tween-80

O=C(Nc1cccc(C(F)(F)F)c1)Nc1nccs1
T/C (dose: 25.0 mg/kg/injection, schedule: Q01DX009 (ip), vehicle: Klucel (hydroxypropylcellulose) (HPC)): 100 % of control | T/C [1]: 98 % of control | T/C [2]: 97 % of control

NS(=O)(=O)c1cccnc1Nc1cccc(Cl)c1Cl
T/C [3]: 100 % of control | T/C [4]: 100 % of control | T/C [5]: 96 % of control

COc1cccc2c1C(=O)c1c(O)c3c(c(O)c1C2=O)C[C@@](O)(C(C)=O)CC3OC1CC(N/C(C)=C/C(=O)c2ccccc2)C(O)C(C)O1 (stereo not given in full)
T/C (dose: 6.25 mg/kg/injection, schedule: Q04DX003 (ip), vehicle: saline with Tween-80): 105 % of control | T/C (dose: 12.5 mg/kg/injection, schedule: Q04DX003 (ip), vehicle: saline with Tween-80): 104 % of control | T/C (dose: 25.0 mg/kg/injection, schedule: Q04DX003 (ip), vehicle: saline with Tween-80): 105 % of control and 107 % of control | T/C [6]: 101 % of control and 111 % of control

CCCC1N=C(N)N=C(N)N1c1ccc(OC)cc1 (stereo not given)
T/C (dose: 12.5 mg/kg/injection, schedule: Q01DX005 (ip), vehicle: saline with Tween-80): 100 % of control | T/C (dose: 25.0 mg/kg/injection, schedule: Q01DX005 (ip), vehicle: saline with Tween-80): 103 % of control | T/C [7]: 101 % of control and 106 % of control

O=S1(=O)C(c2ccccc2)=C(O)c2cc3ccccc3nc21
T/C [8]: 107 % of control | T/C [9]: 112 % of control | T/C [10]: 107 % of control

NC(CCC(=O)NCC(=O)NCC(=O)O)C(=O)O (stereo not drawn) (ξγGlu-Gly-Gly-OH)
T/C [11]: 100 % of control | T/C [12]: 97 % of control | T/C [13]: 102 % of control

Oc1nc2nc[nH]n2c1N=Nc1ccccc1
T/C (dose: 60.0 mg/kg/injection, schedule: Q01DX005 (ip), vehicle: Klucel (hydroxypropylcellulose) (HPC)): 115 % of control | T/C (dose: 120.0 mg/kg/injection, schedule: Q01DX005 (ip), vehicle: Klucel (hydroxypropylcellulose) (HPC)): 98 % of control | T/C (dose: 240.0 mg/kg/injection, schedule: Q01DX005 (ip), vehicle: Klucel (hydroxypropylcellulose) (HPC)): 92 % of control

OC(CCCCl)CC(O)(C(F)(F)F)C(F)(F)F (stereo not given)
T/C [8]: 110 % of control | T/C [9]: 110 % of control | T/C [10]: 110 % of control

O=C(NC(Cc1ccc(Br)cc1)C(=O)O)c1cccc(Br)c1 (stereo not given)
T/C [14]: 91 % of control | T/C [15]: 102 % of control | T/C [16]: 104 % of control

C[Si](C)(CCCNCCN)O[Si](C)(C)CCCNCCN
T/C (dose: 15.0 mg/kg/injection, schedule: Q01DX005 (ip), vehicle: saline with Tween-80): 104 % of control | T/C (dose: 30.0 mg/kg/injection, schedule: Q01DX005 (ip), vehicle: saline with Tween-80): 118 % of control | T/C [17]: 94 % of control and 96 % of control

CCCCNC(=O)c1cc(NC(=O)c2ccc(C(=O)Nc3cc(C(=O)NCCCC)cc(C4N=CCN4)c3)cc2)cc(C2=NCCN2)c1 (stereo not given)
T/C [7]: 94 % of control | T/C [18]: 95 % of control

COC(=O)C(N)CN (stereo not given)
T/C (dose: 43.75 mg/kg/injection, schedule: Q01DX009 (ip), vehicle: saline with Tween-80): 97 % of control | T/C (dose: 87.5 mg/kg/injection, schedule: Q01DX009 (ip), vehicle: saline with Tween-80): 97 % of control | T/C (dose: 175.5 mg/kg/injection, schedule: Q01DX009 (ip), vehicle: saline with Tween-80): 97 % of control

CC1(C)COC(=O)/C1=C/C#N
T/C [14]: 106 % of control | T/C [15]: 98 % of control | T/C [16]: 90 % of control

Cc1ccc(/C=C/C(=O)C(CN(C)C)CN(C)C)cc1
T/C (dose: 1.56 mg/kg/injection, schedule: Q01DX005 (ip), vehicle: saline): 100 % of control | T/C (dose: 3.12 mg/kg/injection, schedule: Q01DX005 (ip), vehicle: saline): 106 % of control

Cc1noc(NC(=O)Nc2ccccc2F)c1C#N
T/C [7]: 91 % of control | T/C [18]: 100 % of control

CC(=C1N=c2ccccc2=N1)c1[nH]c(O)c2ccccc12
T/C [8]: 95 % of control | T/C [9]: 90 % of control | T/C [10]: 96 % of control

CCN1CC2C3CCC(C)(O3)C2C1 (stereo not given)
T/C [11]: 99 % of control | T/C [12]: 98 % of control | T/C [13]: 101 % of control

O=C(CBr)c1cccc(OC(=O)c2ccccc2)c1
T/C (dose: 6.25 mg/kg/injection, schedule: Q01DX009 (ip), vehicle: saline with Tween-80): 108 % of control | T/C [19]: 108 % of control

CC(C)c1ccc(C2C3CCN2CC3)cc1 (stereo not given)
T/C [3]: 91 % of control

CCOC(=O)c1c[nH]c2cc(Cl)ccc2c1=O
T/C [8]: 93 % of control | T/C [9]: 98 % of control | T/C [10]: 93 % of control

CCS(=O)C(F)(F)C(F)Cl (stereo not given)
T/C [7]: 97 % of control | T/C [18]: 100 % of control | T/C (dose: 200.0 mg/kg/injection, schedule: Q01DX005 (ip), vehicle: saline with Tween-80): 100 % of control

c1ccc2c(N3CCCCC3)ncnc2c1
T/C [11]: 107 % of control | T/C [12]: 100 % of control

N#Cc1c(NC(=O)Nc2cc(C(F)(F)F)ccc2Cl)sc(=S)c2c1CCCC2
T/C [7]: 100 % of control | T/C [18]: 103 % of control

NC(=O)C1=C(N)CCC1
T/C [9]: 90 % of control | T/C [10]: 90 % of control | T/C (dose: 400.0 mg/kg/injection, schedule: Q01DX009 (ip), vehicle: saline with Tween-80): 100 % of control

O=c1n(-c2ccccc2)c(=O)n2c(=O)n(-c3ccccc3)c(=O)n12
T/C [1]: 105 % of control | T/C [2]: 93 % of control | T/C (dose: 200.0 mg/kg/injection, schedule: Q01DX009 (ip), vehicle: Klucel (hydroxypropylcellulose) (HPC)): 89 % of control

Cc1nc(N)cc(=O)[nH]1
T/C (dose: 50.0 mg/kg/injection, schedule: Q01DX009 (ip), vehicle: suspension in saline): 89 % of control | T/C (dose: 100.0 mg/kg/injection, schedule: Q01DX009 (ip), vehicle: suspension in saline): 93 % of control | T/C (dose: 200.0 mg/kg/injection, schedule: Q01DX009 (ip), vehicle: suspension in saline): 91 % of control | T/C (dose: 400.0 mg/kg/injection, schedule: Q01DX009 (ip), vehicle: suspension in saline): 101 % of control

CC1(C)COC(Cc2ccccc2)=N1
T/C [8]: 100 % of control | T/C [6]: 100 % of control | T/C [9]: 104 % of control | T/C (dose: 100.0 mg/kg/injection, schedule: Q04DX003 (ip), vehicle: saline with Tween-80): 95 % of control | T/C [10]: 100 % of control | T/C (dose: 200.0 mg/kg/injection, schedule: Q04DX003 (ip), vehicle: saline with Tween-80): 100 % of control

CCOC(=O)CNC1CC(O[C@H]2C[C@](O)(C(C)=O)Cc3c(O)c4c(c(O)c32)C(=O)c2c(OC)cccc2C4=O)OC(C)C1O (stereo not given in full)
T/C (dose: 25.0 mg/kg/injection, schedule: Q04DX003 (ip), vehicle: Klucel (hydroxypropylcellulose) (HPC)): 103 % of control | T/C (dose: 50.0 mg/kg/injection, schedule: Q04DX003 (ip), vehicle: Klucel (hydroxypropylcellulose) (HPC)): 110 % of control | T/C (dose: 100.0 mg/kg/injection, schedule: Q04DX003 (ip), vehicle: Klucel (hydroxypropylcellulose) (HPC)): 109 % of control | T/C (dose: 200.0 mg/kg/injection, schedule: Q04DX003 (ip), vehicle: Klucel (hydroxypropylcellulose) (HPC)): 100 % of control

CN1CCN(S(=O)(=O)c2cnccc2N2CCN(CCO)CC2)CC1
T/C [3]: 108 % of control | T/C [4]: 97 % of control | T/C [5]: 97 % of control

Cc1nc(O)c(-c2ccc(Cl)cc2)c(=O)[nH]1
T/C [17]: 102 % of control | T/C (dose: 120.0 mg/kg/injection, schedule: Q01DX005 (ip), vehicle: saline with Tween-80): 109 % of control

O=C1N(CC2CO2)CCN1CC1CO1 (stereo not given)
T/C (dose: 25.0 mg/kg/injection, schedule: Q01DX009 (ip), vehicle: saline): 120 % of control | T/C [4]: 155 % of control and 159 % of control | T/C [5]: 206 % of control and 215 % of control

C1CCC2(CC1)NCCO2
T/C (dose: 25.0 mg/kg/injection, schedule: Q01DX005 (ip), vehicle: suspension in saline): 98 % of control | T/C (dose: 50.0 mg/kg/injection, schedule: Q01DX005 (ip), vehicle: suspension in saline): 93 % of control | T/C (dose: 100.0 mg/kg/injection, schedule: Q01DX005 (ip), vehicle: suspension in saline): 94 % of control | T/C (dose: 200.0 mg/kg/injection, schedule: Q01DX005 (ip), vehicle: suspension in saline): 109 % of control | T/C (dose: 400.0 mg/kg/injection, schedule: Q01DX005 (ip), vehicle: suspension in saline): 98 % of control

CCC(O)(CC(=O)O)c1ccccc1 (stereo not given)
T/C [9]: 104 % of control | T/C [10]: 95 % of control

ClCc1cccc2c(CCl)cccc12
T/C [19]: 113 % of control | T/C (dose: 25.0 mg/kg/injection, schedule: Q01DX009 (ip), vehicle: saline with Tween-80): 110 % of control and 124 % of control | T/C [8]: 121 % of control
